Values quoted from earlier work as cited in PMC5459446, “A phase I study of single-agent perifosine for recurrent or refractory pediatric CNS and solid tumors” (PLoS ONE, 2017).
Counter-ions that a name gives are not always drawn.

Tested on: mouse brainstem glioma model
Set-up: method as in PMID 25712742
Settings: doses demonstrated to be effective in cell culture; cited from earlier work

SMILES: CCCCCCCCCCCCCCCCCCOP(=O)([O-])OC1CC[N+](C)(C)CC1 [perifosine, 1,1-Dimethyl-4-[[(octadecyloxy)hydroxyphosphinyl]oxy]-piperidinium inner salt]
- Acute toxicity after convection enhanced delivery: no serious acute toxicities
